In brackets after ≈: the same amount, converted by molar mass.

Details in the first data set: not given
Usually solubility stands for how much of the substance goes into solution per volume. High values mean a readily soluble substance, low ones a poorly soluble substance. In the case of `O=C(O)c1c(Cl)cccc1Cl`, the solubility stood at 74 mM (≈ 14.1 mg/mL). Turning to `CC(C)OC(=O)COc1ccc(Cl)cc1Cl`, the solubility was 0.142 mM (≈ 0.0373 mg/mL). The compound `Cc1cc(C)c(N)cc1C` displayed a solubility of 11.1 mM (≈ 1.5 mg/mL).

In turn, `CC[C@H](Br)C(=O)O` yielded a solubility of 419 mM (≈ 70 mg/mL).

In the case of `Cc1cc(NS(=O)(=O)c2ccc(N)cc2)nc(C)n1`, the solubility stood at 5.79 mM (≈ 1.61 mg/mL). As for `Cc1cc(C)c(C(=O)O)c(C)c1`, the solubility is 4.4 mM (≈ 0.722 mg/mL).

Still in this data set, the particulars now being: 20 °C.
Turning to `O=[N+]([O-])c1cc(Cl)c(Cl)cc1Cl`, the solubility was 0.13 mM (≈ 0.0294 mg/mL). On the same count and under the same terms, as for `Clc1ccc(-c2c(Cl)cc(Cl)c(Cl)c2Cl)c(Cl)c1`, the figure is 3.37e-05 mM (≈ 1.22e-05 mg/mL); as for `CN(C)C(=O)Nc1ccc(Oc2ccc(Cl)cc2)cc1`, 0.0127 mM (≈ 0.0037 mg/mL).

Regarding `CCCC1(CCC)C(=O)NC(=O)NC1=O`, the solubility amounted to 2.83 mM (≈ 0.6 mg/mL).

For `CCc1ccccc1CC`, the solubility was found to be 0.53 mM (≈ 0.0711 mg/mL).

In the case of `O=c1cc(O)cc[nH]1`, the solubility is 56.3 mM (≈ 6.25 mg/mL). The same measure, in the same setting: as for `Clc1ccc(-c2cc(Cl)c(Cl)cc2Cl)cc1Cl`, the figure is 4.1e-05 mM (≈ 1.34e-05 mg/mL).

The same data set, now with this note: 21 °C.
As for `C=C1c2cccc(O)c2C(=O)C2=C(O)[C@]3(O)C(=O)C(C(N)=O)=C(O)[C@@H](N(C)C)[C@@H]3[C@@H](O)[C@H]12`, the solubility stood at 17.1 mM (≈ 7.55 mg/mL).

The data set is the same for the next values; noted with them: 22 °C.
Turning to `Cc1cc(S(=O)(=O)c2ccccc2)ccc1NS(=O)(=O)C(F)(F)F`, the solubility amounted to 0.158 mM (≈ 0.06 mg/mL). For `CCCOC=O`, the solubility is 250 mM (≈ 22 mg/mL). Still for that read-out and setting: as for `O=C(O)[C@@H](O)[C@H](O)[C@H](O)[C@@H](O)C(=O)O`, the figure is 229 mM (≈ 48 mg/mL).

The data set is the same for the next values; noted with them: 23 °C.
`Nc1ccc(C(=O)O)c(O)c1` displayed a solubility of 11 mM (≈ 1.69 mg/mL).

The data set is the same for the next values; noted with them: 24 °C.
Compound `CC(CN1c2ccccc2Sc2ccccc21)N(C)C` (stereo not drawn) displayed a solubility of 0.055 mM (≈ 0.0156 mg/mL). On the same count and under the same terms, as for `COP(=S)(Oc1cc(Cl)c(Br)cc1Cl)c1ccccc1` (stereo not drawn), the figure is 7.28e-05 mM (≈ 3e-05 mg/mL).

Compound `CCN(CC)N=O` gave a solubility of 1040 mM (≈ 106 mg/mL). The compound `CC(C)N(N=O)C(C)C` displayed a solubility of 99.9 mM (≈ 13 mg/mL).

Still in this data set, the particulars now being: 25 °C.
Turning to `CCOc1ccccc1`, the solubility was found to be 4.66 mM (≈ 0.569 mg/mL). The compound `CC(=O)Oc1ccccc1C(=O)O` showed a solubility of 25.5 mM (≈ 4.6 mg/mL). As for `CC(=O)O[C@@H](C(=O)O)c1ccccc1`, the solubility came out at 58.7 mM (≈ 11.4 mg/mL).

The compound `Cc1ccccc1O` came in with a solubility of 239 mM (≈ 25.9 mg/mL). The compound `CCCC(=O)CC` had a solubility of 147 mM (≈ 14.7 mg/mL). As to `O=C(O)c1ccccc1[N+](=O)[O-]`, the solubility came out at 47 mM (≈ 7.85 mg/mL).

As to `COc1ccc2c(c1)c(CC(=O)O)c(C)n2C(=O)/C=C/c1ccccc1`, the solubility was 0.00286 mM (≈ 0.001 mg/mL). `CCCC[C@@H](O)CC` showed a solubility of 34.4 mM (≈ 4 mg/mL). As to `Cc1cc(C)cc(O)c1`, the solubility is 39.9 mM (≈ 4.88 mg/mL). In the case of `CCC(N)C(=O)O` (stereo not drawn), the solubility was determined as 2050 mM (≈ 211 mg/mL). Still for that read-out and setting: next, `CC(=O)Nc1ccc(OC(C)=O)cc1`: 12.4 mM (≈ 2.39 mg/mL); `O=S(=O)(O)CS(=O)(=O)O`: 8900 mM (≈ 1570 mg/mL).

`c1ccc(CCc2ccccc2)cc1` gave a solubility of 0.0236 mM (≈ 0.0043 mg/mL).

Compound `CC(C)CC(C)C` yielded a solubility of 0.0549 mM (≈ 0.0055 mg/mL). The compound `ClCBr` had a solubility of 129 mM (≈ 16.7 mg/mL). On to `NC(=O)c1ccccc1O`, for which the solubility was determined as 15 mM (≈ 2.06 mg/mL). Same read-out and setting: next, `O=C(O)c1cc(=O)c(O)c(C(=O)O)o1`: 42 mM (≈ 8.4 mg/mL); `Clc1ccc(-c2ccc(Cl)c(Cl)c2)cc1Cl`: 1.95e-06 mM (≈ 5.69e-07 mg/mL); `CC(=O)CC(C)C`: 190 mM (≈ 19 mg/mL).

Regarding `FC1(F)C(F)(F)C(F)(F)C1(F)F`, the solubility turned out to be 0.165 mM (≈ 0.033 mg/mL). On the same count and under the same terms, as for `Oc1c2ccccc2cc2ccccc12`, the figure is 0.0185 mM (≈ 0.00359 mg/mL); as for `C1CCCNCC1`, 1710 mM (≈ 170 mg/mL); as for `Clc1cc(Cl)cc(Cl)c1`, 0.0331 mM (≈ 0.00601 mg/mL). Same read-out and setting: next, `CCC1(C2=CCCCCC2)C(=O)NC(=O)NC1=O`: 0.999 mM (≈ 0.25 mg/mL); `NC(=O)CC[C@H](N)C(=O)O`: 283 mM (≈ 41.3 mg/mL). Still for that read-out and setting: as for `COc1ccc2c(c1OC)C(=O)OC2`, the figure is 12.9 mM (≈ 2.5 mg/mL).

Still in this data set, the particulars now being: 27 °C.
`C#C[C@]1(O)CC[C@H]2[C@@H]3CCc4cc(O)ccc4[C@H]3CC[C@@]21C`: the solubility was determined as 0.0381 mM (≈ 0.0113 mg/mL).

The same data set, now with this note: 30 °C.
On to `O=C(O)CCCCCCCCCCBr`, for which the solubility came to 0.2 mM (≈ 0.053 mg/mL). In turn, `CC(=O)Nc1nnc(S(N)(=O)=O)s1` returned a solubility of 4.41 mM (≈ 0.98 mg/mL). Compound `COc1ccccc1C(=O)O` gave a solubility of 32.9 mM (≈ 5 mg/mL). In turn, `C/C=C/C=C/C(=O)O` returned a solubility of 22.3 mM (≈ 2.5 mg/mL).

The record behind these values is the OPERA property sets (Mansouri et al. 2018).
